Entries after “also recorded” stand apart in the source; their conditions may differ.
Assays:
[1] = system: MMP1 gene expression in HSC-3 cells; assay: qRT-PCR of MMP1 gene expression in HSC-3 cells; type: cell-based, human
Method: (D) is a schematic of the Boyden chambers and solutions used to quantify cell invasion. DOK cells overexpressing ORAI1 (O1) and STIM1 (S1) were seeded in the top chamber with 2% FBS. Media in the bottom chamber contained 10% FBS.
The role of ORAI1 in oral cancer progression was further elucidated by examining the expression of oncogenes in oral cancer, such as MMP1^9,27, as a proof of concept. We first verified the expression of MMP1 in HaCaT, DOK and HSC-3 cells by qRT-PCR analysis. All cells expressed MMP1 in the order oral cancer HSC-3 cells>dysplastic DOK cells>HaCaT cells (FIG. 2A). We next stimulated HSC-3 cells using different concentrations of CPA to examine changes in MMP1 gene expression mediated by SOCE activation. […] These findings were further supported by the decrease in the expression of MMP1 seen in HSC-3 cells with ORAI1 knockdown or deletion. Because in many cells SOCE activation targets the phosphorylation of the transcription factor NFAT (nuclear factor of activated T cells) and its downstream effectors ^28, and because a previous study implicated NFAT in regulating stemness in oral cancer cells ^16, we next interrogated if the transcriptional up-regulation of MMP1 was downstream of NFAT. We first verified the expression of NFAT isoforms (NFAT1-4) in HaCaT, DOK and HSC-3 cells by qRT-PCR analysis showing that NFAT4 (coded by NFATc3) was the most abundant transcript.

TRPV1 = biological target: T1, TRPV1 (Homo sapiens, UniProt Q8NER1); assay: Stimulation of TRPV1 in HSC-3 cells, cytosolic Ca2+; type: cell-based; settings: TRPV1 agonist, in the presence of Ca2+
T1 construct: Stimulation of transient receptor channels TRPM7, TRPA1 and TRPV1 in HSC-3 cells; endogenous in cells; host or cells: HSC-3 (human oral squamous cell carcinoma)
T1 sequence (Q8NER1 whole entry): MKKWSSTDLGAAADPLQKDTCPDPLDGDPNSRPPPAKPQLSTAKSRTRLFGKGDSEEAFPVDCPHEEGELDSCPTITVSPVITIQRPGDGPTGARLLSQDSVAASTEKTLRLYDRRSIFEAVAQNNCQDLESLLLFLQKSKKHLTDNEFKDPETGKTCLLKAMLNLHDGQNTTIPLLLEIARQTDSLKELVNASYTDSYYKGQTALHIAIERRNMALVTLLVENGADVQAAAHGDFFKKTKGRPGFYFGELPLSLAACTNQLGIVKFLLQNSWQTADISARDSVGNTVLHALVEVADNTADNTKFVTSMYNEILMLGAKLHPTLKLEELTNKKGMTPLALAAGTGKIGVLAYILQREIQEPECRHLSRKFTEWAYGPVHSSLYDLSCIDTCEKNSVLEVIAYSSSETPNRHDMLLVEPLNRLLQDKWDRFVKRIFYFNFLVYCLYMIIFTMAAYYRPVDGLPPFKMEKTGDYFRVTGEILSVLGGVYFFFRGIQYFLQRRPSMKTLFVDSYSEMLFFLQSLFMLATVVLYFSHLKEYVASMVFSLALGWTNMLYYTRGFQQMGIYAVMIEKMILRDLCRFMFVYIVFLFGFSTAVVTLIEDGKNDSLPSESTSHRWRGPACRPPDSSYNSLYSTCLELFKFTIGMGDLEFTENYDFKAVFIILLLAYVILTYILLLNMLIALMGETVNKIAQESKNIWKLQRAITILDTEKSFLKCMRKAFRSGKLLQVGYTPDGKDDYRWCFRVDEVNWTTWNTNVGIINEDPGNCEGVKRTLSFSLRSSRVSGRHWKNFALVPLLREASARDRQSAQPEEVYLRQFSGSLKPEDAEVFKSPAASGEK

TRPM7 = biological target: T2, TRPM7 (Homo sapiens, UniProt Q96QT4); assay: Stimulation of TRPM7 in HSC-3 cells, cytosolic Ca2+; type: cell-based; settings: TRPM7 agonist, in the presence of Ca2+
T2 construct: Stimulation of transient receptor channels TRPM7, TRPA1 and TRPV1 in HSC-3 cells; endogenous in cells; host or cells: HSC-3 (human oral squamous cell carcinoma)
T2 sequence (Q96QT4 whole entry): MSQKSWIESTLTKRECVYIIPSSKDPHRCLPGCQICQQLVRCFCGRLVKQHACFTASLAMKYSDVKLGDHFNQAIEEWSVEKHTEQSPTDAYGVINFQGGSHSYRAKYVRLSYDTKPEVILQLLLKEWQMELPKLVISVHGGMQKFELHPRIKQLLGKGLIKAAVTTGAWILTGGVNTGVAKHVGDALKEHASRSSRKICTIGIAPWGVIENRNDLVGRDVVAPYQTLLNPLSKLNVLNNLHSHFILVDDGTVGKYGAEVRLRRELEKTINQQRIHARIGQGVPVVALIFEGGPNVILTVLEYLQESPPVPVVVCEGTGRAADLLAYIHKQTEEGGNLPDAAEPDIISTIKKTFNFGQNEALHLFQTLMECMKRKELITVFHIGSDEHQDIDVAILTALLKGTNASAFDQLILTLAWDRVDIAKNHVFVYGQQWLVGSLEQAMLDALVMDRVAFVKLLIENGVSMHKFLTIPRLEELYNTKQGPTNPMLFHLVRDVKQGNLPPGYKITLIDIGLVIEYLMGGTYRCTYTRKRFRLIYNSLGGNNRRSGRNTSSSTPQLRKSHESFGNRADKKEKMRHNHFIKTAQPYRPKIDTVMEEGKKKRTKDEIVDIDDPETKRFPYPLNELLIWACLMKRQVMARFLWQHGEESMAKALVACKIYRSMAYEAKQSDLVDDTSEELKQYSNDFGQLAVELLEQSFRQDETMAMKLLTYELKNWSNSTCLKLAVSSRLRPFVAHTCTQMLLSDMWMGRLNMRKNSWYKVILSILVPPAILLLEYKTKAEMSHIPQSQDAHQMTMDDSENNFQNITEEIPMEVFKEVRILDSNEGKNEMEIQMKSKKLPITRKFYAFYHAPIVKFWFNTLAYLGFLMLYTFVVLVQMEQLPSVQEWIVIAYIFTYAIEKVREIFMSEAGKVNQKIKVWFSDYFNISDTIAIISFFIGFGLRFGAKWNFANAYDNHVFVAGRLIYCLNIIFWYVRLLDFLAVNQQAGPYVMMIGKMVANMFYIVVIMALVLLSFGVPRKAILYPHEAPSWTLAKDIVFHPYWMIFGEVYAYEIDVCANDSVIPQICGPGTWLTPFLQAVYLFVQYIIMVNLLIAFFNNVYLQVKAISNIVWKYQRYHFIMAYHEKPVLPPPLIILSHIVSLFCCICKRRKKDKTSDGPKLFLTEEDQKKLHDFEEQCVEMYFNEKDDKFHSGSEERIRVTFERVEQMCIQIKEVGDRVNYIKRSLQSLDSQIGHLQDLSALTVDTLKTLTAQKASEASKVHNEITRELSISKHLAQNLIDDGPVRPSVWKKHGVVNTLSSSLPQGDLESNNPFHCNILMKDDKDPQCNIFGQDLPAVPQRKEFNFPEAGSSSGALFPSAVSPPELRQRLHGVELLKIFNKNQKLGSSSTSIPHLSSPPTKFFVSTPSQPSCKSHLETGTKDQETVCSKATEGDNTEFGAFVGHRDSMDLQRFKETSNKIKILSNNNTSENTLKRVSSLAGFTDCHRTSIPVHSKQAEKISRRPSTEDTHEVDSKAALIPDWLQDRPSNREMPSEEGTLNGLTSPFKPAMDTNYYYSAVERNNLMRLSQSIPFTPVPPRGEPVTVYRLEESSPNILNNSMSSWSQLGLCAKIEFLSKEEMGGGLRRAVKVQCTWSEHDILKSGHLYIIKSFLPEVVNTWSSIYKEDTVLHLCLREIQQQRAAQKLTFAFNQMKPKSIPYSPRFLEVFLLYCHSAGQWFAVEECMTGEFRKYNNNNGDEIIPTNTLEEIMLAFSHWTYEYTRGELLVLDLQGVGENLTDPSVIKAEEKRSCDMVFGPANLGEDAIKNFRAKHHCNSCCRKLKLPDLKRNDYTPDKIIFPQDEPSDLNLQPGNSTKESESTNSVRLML
From the text: (§1) To investigate SOCE in oral cancer cells, we first used qRT-PCR analysis to analyze the expression of ORAI1-3 in the human oral squamous cell carcinoma (OSCC) cell lines HSC-3 and SCC-9, in the dysplastic oral keratinocytes DOK cells, and in spontaneously transformed normal keratinocytes HaCaT cells. […] Next, we tested whether these cells had functional SOCE by stimulating them with cyclopiazonic acid (CPA), a reversible blocker of the sarco-endoplasmic reticulum Ca^2+ ATPase (SERCA) pump that passively depletes the ER Ca^2+ stores inducing STIM1/ORAI1 coupling and SOCE activation ^22,23. […] We also examined the contribution of other channels that have been implicated in Ca^2+ influx in various cancer cells.

SOCE in HSC-3 cells = assay: SOCE ([Ca2+]cyto) after CPA stimulation in HSC-3 cells; type: cell-based, human; settings: in the presence of the blocker
Method: FIG. 1: (A) Heatmap contrast of average variance stabilizing transformation (VST) of ORAI1, ORAI2 and ORAI3 genes between normal (control: N=3 samples) and tongue cancer patients (N=10 samples). Statistical significance was analyzed using the Benjamini-Hochberg FDR (5%) and fold change of 1.5. Both FDR values and fold change were generated using DESeq2. (B-D) show haematoxylin and eosin (H&E) staining (left) and immunofluorescence staining of ORAI1 (right) in the boxed areas of tongue tissue sections showing normal (B), dysplastic (C) and invasive tumor (D) phenotypes. Nuclear staining by 4′,6-diamidino-2-phenylindole (DAPI) is shown in blue. Scale bar, 200 μm. […] (H) and (J) show qRT-PCR analyses of ORAI1 gene expression by the 2^−ΔΔCT method comparing control (scrambled shRNA) and shORAI1 (ORAI1 KD) HSC-3 cells (H) or CRISPR/Cas9 ORAI1 (ORAI1 KO) (J). (I) and (K) show [Ca^2+]cyto measurements comparing control HSC-3 cells compared to shORAI1 (ORAI1 KD) (I) or compared to CRISPR/Cas9 ORAI1 (ORAI1 KO) (K) (left). Quantification of SOCE corrected for baseline Ca^2+ levels as Δpeak (F−F0) (right). (L) and (M) show cell proliferation measured using MTS comparing control HSC-3 cells compared to shORAI1 (ORAI1 KD) (L) or compared to CRISPR/Cas9 ORAI1 (ORAI1 KO) (M). […]

SOCE in SCC-9 cells = assay: SOCE ([Ca2+]cyto) after CPA stimulation in SCC-9 cells; type: cell-based, human; settings: in the presence of the blocker
From the text: as §1

HSC-3 cells [2] = assay: Cell proliferation, colorimetric assay MTS; type: cell-based, human
Method: FIG. 1: (A) Heatmap contrast of average variance stabilizing transformation (VST) of ORAI1, ORAI2 and ORAI3 genes between normal (control: N=3 samples) and tongue cancer patients (N=10 samples). Statistical significance was analyzed using the Benjamini-Hochberg FDR (5%) and fold change of 1.5. Both FDR values and fold change were generated using DESeq2. (B-D) show haematoxylin and eosin (H&E) staining (left) and immunofluorescence staining of ORAI1 (right) in the boxed areas of tongue tissue sections showing normal (B), dysplastic (C) and invasive tumor (D) phenotypes. Nuclear staining by 4′,6-diamidino-2-phenylindole (DAPI) is shown in blue. Scale bar, 200 μm. […] Quantification of SOCE corrected for baseline Ca^2+ levels as Δpeak (F−F0) (right). (L) and (M) show cell proliferation measured using MTS comparing control HSC-3 cells compared to shORAI1 (ORAI1 KD) (L) or compared to CRISPR/Cas9 ORAI1 (ORAI1 KO) (M).
To address the role of SOCE in key cancer hallmarks such as cell proliferation in oral cancer, we used two independent approaches to eliminate ORAI1 expression in HSC-3 cells. […] To address the effects of ORAI1 in cell proliferation, we analyzed HSC-3 cells in the presence of synta-66 and in which ORAI1 expression had been reduced by shORAI1 or CRISPR/Cas9 editing using the colorimetric assay MTS (FIG. 1, L and M).

HSC-3 cells [3] = assay: Bulk RNA-seq of CPA stimulated HSC-3 cells; type: cell-based, human

CC(=O)C1=C(O)[C@@H]2[C@H]3c4c[nH]c5cccc(c45)C[C@H]3C(C)(C)N2C1=O [CPA, cyclopiazonic acid]
time of maximal effect on MMP1 gene expression ([1]; HSC-3 cells, CPA stimulation): 3 h

COc1cc(CNC(=O)CCCC/C=C/C(C)C)ccc1O [capsaicin]
increase in cytosolic Ca2+ (TRPV1): failed to evoke an increase

Oc1ccc2c3c1O[C@H]1c4oc5ccccc5c4C[C@@]4(O)[C@@H](C2)N(CC2CC2)CC[C@]314 [naltriben]
increase in cytosolic Ca2+ (TRPM7): failed to evoke an increase

COc1ccc(OC)c(-c2ccc(NC(=O)c3ccncc3F)cc2)c1 [synta-66]
SOCE (SOCE in HSC-3 cells): significantly reduced; also recorded: abolished
SOCE (SOCE in SCC-9 cells): significantly reduced
proliferation compared to control cells (HSC-3 cells [2]): significantly decreased
effect on the CPA-elicited increase in MMP1 gene expression ([1]; HSC-3 cells stimulated with CPA): attenuated the increase
mRNA level of pain modulators (VEGF-A, B and C, NGF, TLR2, PTGS2) (HSC-3 cells [3]): down-regulated
number of MMP genes significantly down-regulated (HSC-3 cells [3]; out of >21 genes in the MMP family, FDR<0.05): 8

From patent US20230414609A1, “USES OF ORAI1-SPECIFIC CALCIUM CHANNELS IN TREATMENT OF ORAL CANCER” (New York University, priority 2022, published 2023)
